We go through 2 molecules from publication PMC10920779, “Targeting P2Y14R protects against necroptosis of intestinal epithelial cells through PKA/CREB/RIPK1 axis in ulcerative colitis” (Nature Communications, 2024).

The structures appear in SMILES notation. Where “and” joins values, the source holds several entries; their conditions need not be identical. Identical values can stand only once. Entries after “also recorded” stand apart in the source; their conditions may differ.

One experiment concerns HT-29 cells. Nature of the experiment: TSZ-induced necroptosis in HT-29 cells (CCK8 viability, PI/Hoechst, H&E staining). Type of experiment: cell-based, human. How it is done: Necroptosis was induced by pretreatment with TNF‐α (20 ng·mL^−1) plus z‐VAD‐fmk (20 μM) and Smac mimetic (BV6, 2 μM) for 8 h, then stained cells with hematoxylin/eosin. For PI/Hoechst staining, cells were stained with PI and Hoechst for 20 min, then photographed with a fluorescence microscope and at least 300 cells were counted. The ratio of PI positive cells (%) = (PI positive cells) / (Hoechst positive cells) × 100%. For cell viability assay, CCK8 was added to the well and incubated for 1 − 2 h and then OD450 was measured using a multi-mode microplate reader (Cytation5, BioTek).

The subject of experiment [1] is MLKL, PKA, CREB phosphorylation. Nature of the experiment: Immunoblotting of p-MLKL, p-PKA, p-CREB in colon tissues/IECs of DSS-treated mice. Type of experiment: in vivo, mouse. To be noted: for Activation of cAMP/PKA/CREB pathway (p-PKA, p-CREB): DSS-induced colitis mice; for Necroptosis of IECs (p-MLKL level and TEM imaging): high-dose, 20 μM, during DSS feeding. How it is done: The data represent the mean ± SD for c, e, and h–l, the data represent the mean ± SEM for b.
Colon tissues derived from the euthanized by carbon dioxide inhalation mice were opened longitudinally and washed in pre-cooling PBS for three times. Then, the tissues were cut into 3 mm^2 pieces and incubated with 5 mM EDTA solution in PBS on a constant temperature shaker at 200 rpm for 25 min at 37°C. Then, let it stand at room temperature for 30 seconds and collected the supernatant. Next, repeated the above process once. Supernatants from the above step were combined and centrifuged at 500 g for 8 min. Abandon the supernatants and obtain IECs.
Tissues and cells were lysed using RIPA lysis buffer (Beyotime Biotechnology) containing protease and phosphatase inhibitor, homogenated, and centrifuged. The protein concentration was determined by BCA protein assay (Beyotime Biotechnology). Equal concentrations of proteins were separated in a 10% SDS-PAGE and transferred to PVDF membrane. The membrane was blocked using 5% milk in TBST, probed with primary antibody, RIPK1 (17519-1-AP, Proteintech, 1:1000), MLKL (GTX107538-100, GeneTex, 1:1000), RIPK3 (17563-1-AP, Proteintech, 1:1000), p-MLKL (EPR9514, Abcam, 1:1000), PKA (bs-0520R, Bioss, 1:1000), p-PKA (#9621, Cell signaling, 1:1000), CREB (AF6188, Affinity, 1:1000), p-CREB (AF3189, Affinity, 1:1000), P2Y14R (bs-12028R, Bioss, 1:1000), GSDMD (ab209845, Abcam, 1:1000), Caspase1 p20 (bs-10442R, Bioss, 1:1000), Bcl-2 (bs-0032R, Bioss, 1:1000), Bax (AF0120, Affinity, 1:1000), Caspase-3 p-17 (Cell Signaling Technology, #9664, 1:1000), β-actin (bs-0061R, Bioss, 1:1000), GAPDH (BS-2188R, Bioss, 1:1000) and corresponding HRP-conjugated antibodies Goat Anti-Rabbit IgG H&L Antibody (bioss, Bs-0295G, 1:8000) or Goat Anti-Mouse IgG H&L Antibody (bioss, Bs-0296G, 1:8000). Densitometry was quantified using ImageJ software.

In a further experiment the test system is mucosal barrier function. Nature of the experiment: Intestinal permeability, serum FITC-dextran in DSS-treated mice. It is filed as in vivo, mouse. The procedure: The mice treated with DSS for 7 days were fasted for 6 h, given FITC-dextran (3-5 kDa, FD4, sigma) intragastrically at a dose of 60 mg kg^−1. After 3 h, hemolysis-free sera were collected and the fluorescence intensity of serum was read by a multi-mode microplate reader (excitation, 488 nm; emission, 520 nm).

Experiment [2] has as its system CREB binding to Ripk1 promoter. Nature of the experiment: ChIP-qPCR with anti-CREB on Ripk1 gene promoter in IECs of experimental colitis mice. To be noted: for CREB binding Ripk1 promoter: DSS-treated mice, Figure 7j; for Binding between CREB and Ripk1 promoter (ChIP): IECs of DSS-induced colitis mice. It is filed as in vivo, mouse. How it is done:
Total RNA was extracted from cells or colonic tissues using Trizol (Thermo) under the manufacturer’s instructions. First strand cDNA was synthesized using the PrimeScript RT Reagent Kit (480, Abm). SYBR Green Master Mix reagents (Q331-02, Vazyme) and primer mixtures (Table S1) were used for the real-time PCR. The ChIP assays were performed using EZ ChIP kit (17-371, Millipore). The procedure was as described in the kit provided by the manufacturer. Briefly, isolated IECs were fixed by 1% formaldehyde, and fragmented by sonication. CREB was then used for immunoprecipitation. After washing and reverse-crosslinking, the precipitated DNA was amplified by primers and quantified by the qPCR. Primer sequences can be found in Supplementary Table 1.

[3] abbreviates: DSS-treated mice, group -H (high dose), Figure 7h.
Setting [4] is: DSS-treated mice, group -L (low dose), Figure 7h.
[5] abbreviates: P2Y14R△IEC mice + DSS + PPTN, individual mice, supplement Figure 4e.

Consider `Brc1ccc(NCc2nc3ccccc3o2)cc1` [HDL-16], for which the “Necroptosis of HT-29 cells (PI staining)” value with HT-29 cells (TSZ-treated, pre-administrated with compound) was “inhibit the necroptosis”. The “Activation of cAMP/PKA/CREB pathway (p-PKA, p-CREB)” value in experiment [1] was “significantly increased the level of p-PKA and p-CREB; also recorded: upregulated the activation of the cAMP/PKA/CREB pathway”. For the same molecule, the P-MLKL/MLKL in experiment [1] (setting [3]) was 1.521 and 1.265 and 1.621 and 1.356 and 1.5395; in experiment [1] (setting [4]) it was 1.7141 and 1.386 and 1.7276 and 1.656 and 1.549; in experiment [1] (P2Y14R△IEC mice + DSS + HDL-16-H (high dose), individual replicates), 1.288 and 1.248 and 1.394 and 1.076 and 1.4285; in experiment [1] (P2Y14R△IEC mice + DSS + HDL-16-L (low dose), individual replicates), 1.279 and 1.445 and 1.246 and 1.195 and 1.182. Moreover, the P-PKA/PKA in experiment [1] (setting [3]) is 1.707 and 1.759 and 1.709 and 1.416 and 2.236; in experiment [1] (setting [4]), 1.542 and 1.79 and 2.009 and 1.5655 and 1.809. Besides, the p-CREB/CREB in experiment [1] (setting [3]) was 1.095 and 0.9798 and 1.543 and 0.8826 and 0.8002; in experiment [1] (setting [4]), 0.8983 and 0.8748 and 1.433 and 0.9557 and 0.9121. In addition, in experiment [1], the “Necroptosis of IECs (p-MLKL level and TEM imaging)” value is listed as “prominently suppression in necroptosis”. In addition, the “Serum level of FITC-dextran in DSS-treated mice relative to treated group” value in the experiment on mucosal barrier function (high-dose, 20 μM, 100 μl per mouse) is “significantly higher”. For the same molecule, the “CREB binding Ripk1 promoter” value is 68.32% and 67.71% and 73.03% in experiment [2] (group -H (high dose)); 52.80% and 57.62% and 56.66% in experiment [2] (group -L (low dose)). In experiment [2], the “Binding between CREB and Ripk1 promoter (ChIP)” value was “promoted the binding between CREB and Ripk1 promoter”.

`O=C(O)c1cc(-c2ccc(C3CCNCC3)cc2)c2ccc(-c3ccc(C(F)(F)F)cc3)cc2c1` [PPTN, reference compound]: the “PI positive cell, PI intensity (%)” value in the experiment with HT-29 cells (Figure 7k, TSZ-treated cells) is 15.53% and 10.57% and 8.89%. In addition, in experiment [1], the “Activation of cAMP/PKA/CREB pathway (p-PKA, p-CREB)” value was “significantly increased the level of p-PKA and p-CREB”; the “Necroptosis of IECs (p-MLKL level and TEM imaging)” value is given as “prominently suppression in necroptosis”. In addition, in experiment [1] (DSS-treated mice, Figure 7h), the P-MLKL/MLKL was 1.3877 and 1.2109 and 1.586 and 1.421 and 1.9357; the P-PKA/PKA was 2.217 and 1.679 and 2.34 and 2.232 and 2.623; the p-CREB/CREB was 0.8109 and 1.08 and 1.258 and 1.076 and 0.8633. Moreover, the P-MLKL/MLKL in experiment [1] (P2Y14R△IEC mice + DSS + PPTN, individual replicates) was 1.205 and 1.2332 and 1.252 and 1.224 and 1.39. In addition, the “CON(ug/ml), serum FITC-dextran” value with mucosal barrier function (DSS-treated mice, Figure 7e) is 12.4177 µg/mL and 12.0055 µg/mL and 12.4453 µg/mL and 11.0788 µg/mL and 9.474 µg/mL and 9.103 µg/mL. In the experiment on mucosal barrier function (setting [5]), the CON was 6.506 µg/mL and 7.571 µg/mL and 6.5332 µg/mL and 6.645 µg/mL and 6.518 µg/mL and 7.625 µg/mL; the Serum fluorescence intensity was 5968551 and 6689623 and 5987216 and 6062672 and 5977001 and 6726135. Moreover, in experiment [2], the “CREB binding Ripk1 promoter” value was 59.41% and 55.99% and 63.77%; the “Binding between CREB and Ripk1 promoter (ChIP)” value is “promoted the binding between CREB and Ripk1 promoter”.
